Read-outs that look alike come from different tables or passages of the source. Ends that are not written are not given here. * marks the point of attachment. DNP = dinitrophenol (DNP) tag on lysine, O=[N+]([O-])c1ccc(*)c([N+](=O)[O-])c1; Dnp = O=[N+]([O-])c1ccc(*)c([N+](=O)[O-])c1
Key:
[1] = biological target: T1, HLA-A*02:01 tetramers with exiting peptide ILKEKK(DNP)VHGV (Homo sapiens, UniProt P04439, D140Y/D185E/D98H/E176V/E277Q/G131W/G231S/I119V/I121R/I166T/I218V/L300P/L318F/N151K/N90K/P208A/P217A/Q86G/Q94H/R138H/R169H/T345S); experiment: HLA-A*02:01 peptide exchange quantitation; type: binding; conditions: entering peptide 20 μM final, 4 hours; HLA-A*02:01 tetramer
T1 construct: prepared as known in the art, for instance by deletion of the transmembrane domain and the cytoplasmic domain; made in house
Method: Peptide Exchange Procedure: 50 μL of the tetramer solution is combined with 1 μL of peptide exchange factor, such as glycyl methionine, (resulting in a final peptide exchange factor concentration of 5-20 mM) and 1 μL of the peptide solution and the resulting solution was mixed, then incubated at room temperature for four hours.
Sandwich magnetic bead immunoassay: 20 μL capture beads is pipetted into wells 1-4 on a 96-well plate. 5 μL assay buffer is pipetted into well 2. 5 μL of exchanged tetramer is pipetted into well 4. Additional exchanged tetramers may be pipetted into wells 5 and up. The plate is protected from light and shaken for 45 min at 550 rpms/min. 150 μL of assay buffer is dispensed into each well. The plate is placed on a plate magnet and the beads are permitted to sediment for at least 5 minutes.
Separately, a preparation of the FITC-conjugated anti-tag antibody is prepared at 10 μg/mL. 25 μL of the FITC-conjugated anti-tag antibody is pipetted into each well except well 1, and the plate is again protected from light and shaken for 45 min at 550 rpms/min.
150 μL of assay buffer is dispensed into each well, and the plate is placed on a plate magnet. The beads are permitted to sediment for at least 5 minutes. The beads are resuspended in sheath fluid and transferred to labeled flow cytometer tubes (referred to herein by the number of the well they are drawn from), which are then analyzed on a flow cytometer.
Flow Cytometry Analysis: Unused magnetic beads are used to set FSC (forward-scattered light) and SSC (side-scattered light) voltages and gains such that a live gate selects single beads and excludes doublets and larger clumps, see FIG. 1A. […] Tube 1 is run to perform compensation in FL1 in order to eliminate fluorochrome interference in the FITC channel, see FIG. 1C. The FL1 MFI is set to the first log decade, close to that obtained with beads only. Tube 2, which contains beads that have captured no tetramer and therefore no tagged peptide, is run to calibrate the level for 0% tagged peptide, i.e. 100% peptide exchange (see FIG. 1D). In the exemplary data provided here, the MFI is 0.287. Tube 3, which contains a solution where all tetramers display the original tagged peptide, is run to calibrate the level for 100% tagged peptide, i.e. 0% peptide exchange (see FIG. 1E). In the exemplary data provided here, the MFI is 20.4. Tubes 4 and up are run to evaluate the samples. Peptide exchanged tetramers will display various quantities of tagged peptides, depending on their binding affinities to HLA-A*02:01 molecules. Therefore, the FL1 MFI measured will be intermediary between MFI values obtained with tubes 2 and 3. See FIG. 1F, where in the exemplary data provided here, the MFI is 9.37.
(§1) Peptide exchange data were obtained after incubating peptides (20 μM final) with tetramer for 4 hours, then followed by capture with anti HLA-ABC beads and staining with an anti-DNP FITC antibody.

[2] = biological target: T2, HLA-A*24:02 tetramers with exiting peptide TFQRK(DNP)PAAF (Homo sapiens, UniProt P04439, D101N/D140Y/D185E/E176V/E190D/F33S/G103R/G107R/I119L/I121M/I306V/K335N/L105A/L180Q/L300P/N151K/N90K/Q86E/Q94H/R106L/R138H/R89G/T104I/T345S/V100E/W191G/Y123F); experiment: HLA-A*24:02 peptide exchange quantitation; type: binding; conditions: competing peptide 20 μM final, 4 hours; HLA-A*24:02 tetramer
T2 construct: prepared as known in the art, for instance by deletion of the transmembrane domain and the cytoplasmic domain; made in house
Method: as §1

[3] = biological target: T3, HLA-A*02:01 tetramers (Homo sapiens, UniProt P04439, D140Y/D185E/D98H/E176V/E277Q/G131W/G231S/I119V/I121R/I166T/I218V/L300P/L318F/N151K/N90K/P208A/P217A/Q86G/Q94H/R138H/R169H/T345S); experiment: Comparison of exiting peptides: peptide exchange on HLA-A*02:01 tetramers against […]; type: binding; conditions: GM 10 mM; YLLEFTPPV at 10 and 1 μg/mL; compared with ILKEK(DNP)VHGV
T3 construct: prepared as known in the art, for instance by deletion of the transmembrane domain and the cytoplasmic domain; made in house
Method: Peptide exchange was performed using two HLA-A*02:01 tetramers at 280 μg/mL made with peptides ILKEKK(DNP)VHGV (SEQ ID NO: 3) and ILKEK(DNP)VHGV (SEQ ID NO: 4). […] Tetramers were captured with beads conjugated with an anti HLA-ABC specific antibody at 10 μg/mL.

[4] = biological target: T4, HLA-A*02:01 Tetramers containing exiting peptide ILKEKK(DNP)VHGV (Homo sapiens, UniProt P04439, D140Y/D185E/D98H/E176V/E277Q/G131W/G231S/I119V/I121R/I166T/I218V/L300P/L318F/N151K/N90K/P208A/P217A/Q86G/Q94H/R138H/R169H/T345S); experiment: Quantified peptide exchange assay of vaccine and individual peptide; type: binding
T4 construct: prepared as known in the art, for instance by deletion of the transmembrane domain and the cytoplasmic domain; made in house
Method: Quantified Peptide Exchange Assay: HLA-A*02:01 Tetramers were prepared containing exiting peptide ILKEKK(DNP)VHGV (SEQ ID NO: 3). Peptide exchange was performed against (a) the peptide prepared individually in a buffered solution or (b) in the DPX-Survivac vaccine prepared in an aqueous formulation. HLA-A*02:01 tetramer, and peptide exchange factor glycylmethionine were mixed with each peptide to be tested. Peptide exchange was then quantified by the flow cytometric sandwich immunoassay using magnetic capture beads.
Comparison of Peptide Exchange Assay to T2 HLA-A2 Shift assay: The peptide exchange assay described herein and the T2 HLA-A2 shift assay were conducted on various amounts of peptide per reaction. The results are presented in FIGS. 12D (T2 HLA-A2 shift assay) and 12E (peptide exchange assay), with the three independent repeats shown in diamonds, squares, and triangles. The T2 Shift assay provides a high degree of linearity when applied to the samples containing 10 μg/reaction to 110 μg/reaction of SurA2.M peptide.

[5] = biological target: T5, H-2 Kb tetramers (Mus musculus, UniProt P01901); experiment: Selection of exiting peptide: peptide exchange on H-2 Kb tetramers with competing peptides; type: binding, murine; conditions: H-2 Kb tetramers 280 μg/mL; competing peptides 10 μg/mL
T5 construct: prepared as known in the art, for instance by deletion of the transmembrane domain and the cytoplasmic domain; made in house
T5 sequence (P01901 22-305 limits assumed): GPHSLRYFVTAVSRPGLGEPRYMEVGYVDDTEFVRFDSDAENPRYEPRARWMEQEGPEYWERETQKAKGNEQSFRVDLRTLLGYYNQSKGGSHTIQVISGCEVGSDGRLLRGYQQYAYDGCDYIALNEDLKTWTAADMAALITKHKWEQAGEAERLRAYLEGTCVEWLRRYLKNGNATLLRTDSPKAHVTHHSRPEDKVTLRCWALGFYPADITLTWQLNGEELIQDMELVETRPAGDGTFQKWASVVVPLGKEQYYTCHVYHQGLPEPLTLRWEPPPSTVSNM
Method: Peptide exchange was performed using two H-2 Kb tetramers at 280 jig/mL that were made with peptides MTYK(DNP)FPVT (SEQ ID NO: 1) and YTVK(DNP)FALV (SEQ ID NO: 2). Exchange was performed in the presence of competing peptides at 10 μg/mL. Tetramers were captured with beads conjugated with an anti H-2 Kb specific antibody. Detection was performed with a FITC-conjugated anti-DNP antibody at 10 μg/mL. The results are depicted in FIG. 6, where the exiting peptides are labeled as follows: […]

[6] = biological target: H-2 Kb tetramers (PE, APC or BV421) with exiting peptide TFQRK(DNP)PAAF (Mus musculus, UniProt P01901); conditions: glycyl-methionine, 4 hours room temperature; for Exchange rate, APC: H-2 Kb APC tetramer; for Exchange rate, BV421: H-2 Kb BV421 tetramer; for Exchange rate, PE: H-2 Kb PE tetramer
Method: The mixtures were incubated for 4 hours at room temperature, protected from light.
20 μL of magnetic capture beads were added to wells of a v-bottom 96-well plate for each tested peptide plus wells for control samples. Each test well received 5 μL from the peptide exchange samples. The plate was shaken for 45 minutes at 550 rpm, room temperature, protected from light. After bead rinse, wells received 25 μL of 1× exiting peptide antibody. The plate was shaken for 45 minutes at 550 rpm, room temperature, protected from light. Beads were rinsed, resuspended in 1× assay buffer and run on a FC500 Flow Cytometer. Single beads were gated on FSC vs. SSC and MFI were measured on 500 events per test. Peptide exchange rate was calculated using a calibration curve generated with MFI values from controls.

**Q.** For ALALEVGEL, which “% peptide exchange” value [1] is on record?
**A.** 85.1%

**Q.** How did the “% peptide exchange” value [1] turn out when ALLAVGATK was run?
**A.** 25.7%

**Q.** With AMAPRTLLL as the substance, how does the “% peptide exchange” value [2] read?
**A.** 81.62%

**Q.** How did the “% peptide exchange” value [2] turn out when ATDALMTGY was run?
**A.** 7.74%

**Q.** With ATVQGQNLK as the substance, how does the “% peptide exchange” value [1] read?
**A.** 27.9%

**Q.** Which “% peptide exchange” value [1] does the source give for AVLDGLLSL here?
**A.** 90.7%

**Q.** CINGVCWTV was tested. Which “% peptide exchange” value [1] did it give?
**A.** 85.3%

**Q.** For CSLWNGPHL, which “% peptide exchange” value [1] is on record?
**A.** 55.2%

**Q.** Which “% peptide exchange” value [1] does the source give for EYILSLEEL here?
**A.** 24.2%

**Q.** With FLSELTQQL as the substance, how does the “% peptide exchange” value [2] read?
**A.** 23.65%

**Q.** With FLYDDNQRV as the substance, how does the “% peptide exchange” value [1] read?
**A.** 91.2%

**Q.** Which “% peptide exchange” value [1] does the source give for GLADQLIHL here?
**A.** 91.4%

**Q.** What about the “% peptide exchange” value [2] of the same substance?
**A.** 0.86%

**Q.** For GLAVVTHGL, which “% peptide exchange” value [1] is on record?
**A.** 91.0%

**Q.** With GYSLKLSKL as the substance, how does the “% peptide exchange” value [2] read?
**A.** 37.93%

**Q.** How did the “Performance of the exiting peptide in peptide exchange” value [3] turn out when ILKEKK(Dnp)VHGV was run?
**A.** performs better in peptide exchange

**Q.** IMQIMPYGC was tested. Which “% peptide exchange” value [1] did it give?
**A.** 59.9%

**Q.** Which “% peptide exchange” value [1] does the source give for IMQLMPFGC here?
**A.** 40.9%

**Q.** How did the “% peptide exchange” value [1] turn out when IRLRPGGKK was run?
**A.** 25.0%

**Q.** With IYSTVASSL as the substance, how does the “% peptide exchange” value [2] read?
**A.** 100.98%

**Q.** LMLGEFLKL [SurA2.M] was tested. Which “Peptide exchange rate, individually in buffered solution versus in the vaccine” value ([4]; three independent repeats, Student's t-test at p<0.05) did it give?
**A.** not statistically distinguishable

**Q.** And the “Upper limit of quantification of the peptide exchange assay” value ([4]; various amounts of peptide per reaction)?
**A.** below 0.2 μg/reaction

**Q.** Which “% peptide exchange” value [2] does the source give for LNMADKKET here?
**A.** 10.32%

**Q.** How did the “% peptide exchange” value [1] turn out when LTLGEFLKL was run?
**A.** 43.6%

**Q.** With MTYK(DNP)FPVT as the substance, how does the “Exchangeability of tetramers built with the exiting peptide” value [5] read?
**A.** allowed exchange with a wide range of peptides

**Q.** RAHYNIVTF was tested. Which “% peptide exchange” value [2] did it give?
**A.** 85.58%

**Q.** Which “% peptide exchange” value [1] does the source give for RIKDFLRNL here?
**A.** 34.0%

**Q.** Which “% peptide exchange” value [2] does the source give for RVRAYTYSK here?
**A.** 10.32%

**Q.** Which “% peptide exchange” value [2] does the source give for RYMRWTYRF here?
**A.** 101.29%

**Q.** SIYRYYGL [Reference Peptide] was tested. Which “Exchange rate, APC” value ([6]; Reference Peptide 2 μM) did it give?
**A.** 97.08

**Q.** And the “Exchange rate, APC” value ([6]; Reference Peptide 20 μM)?
**A.** 99.13

**Q.** What about the “Exchange rate, BV421” value ([6]; Reference Peptide 2 μM) of the same substance?
**A.** 90.56

**Q.** What about the “Exchange rate, BV421” value ([6]; Reference Peptide 20 μM) of the same substance?
**A.** 97.34

**Q.** And the “Exchange rate, PE” value ([6]; Reference Peptide 2 μM)?
**A.** 92.72

**Q.** And the “Exchange rate, PE” value ([6]; Reference Peptide 20 μM)?
**A.** 100

**Q.** How did the “% peptide exchange” value [1] turn out when SLPPPGTRV was run?
**A.** 86.6%

**Q.** For SYVPSAEQI, which “% peptide exchange” value [1] is on record?
**A.** 25.0%

**Q.** For WMHHNMDLI, which “% peptide exchange” value [1] is on record?
**A.** 89.2%

**Q.** Which “% peptide exchange” value [1] does the source give for WMHKVPASL here?
**A.** 87.9%

**Q.** YLLEFTPPV was tested. Which “% peptide exchange” value [1] did it give?
**A.** 91.9%

**Q.** How did the “Exchangeability of tetramers built with the exiting peptide” value [5] turn out when YTVK(DNP)FALV was run?
**A.** not possible

— patent US12044680B2, “Peptide exchange system and method” (priority 2016, dated 2024)
